Experiment: recombinant UMI read abundance after kanamycin selection (control-corrected) (log10(CPM+1)); higher = more efficient recombination; extreme values may be limits of the assay; sequences stand for … in AGTGCAGAGAAAATCGGCCAGTTTTCTCTGCCTGCAGTCCGCATGCCGTGGGACCCCTTGGGTTCTAACCTGTTGCCTAGATTTATGCAGCGGACTGCCTTTCTCCCAAAGTGATAAACCGG…AGGTTGGTTTCACT; site = the 11-nt donor
Experimental: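 Pooled E. coli donor-specificity screen for the IS621 bridge recombinase. Each library member carries a reprogrammed 11-nt donor and a full-length LE bridge RNA expressed in cis from the natural promoter, with a paired donor-binding loop (8-nt LDG + 4-nt RDG) and a target-binding loop fixed to T5. It is co-electroporated with a T5 target plasmid; recombinase is induced with 0.07 mM IPTG and recombinants are selected on kanamycin. UMIs are counted as CPM, averaged over two biological replicates and corrected by the unselected control. Molecule = full bridge RNA written as DNA, built from the T5 scaffold: LDG = donor specificity nt 1-8, RDG = reverse complement of nt 8-11.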
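Also: IS621 bridge recombinase in Escherichia coli cells against a fixed T5 target plasmid.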

Row | Sequence | recombinant UMI read abundance (log10)
1 | AGATTCCCATGGACCGGTTTTCCCGGTAATCCGTATTTGTG (site AGGTTCCCTCA) | 0.0134
2 | AGATTCCCATGGACCGGTTTTCCCGGTAATCCGTATTTGTG (site AGTTTCCCTCA) | 0.0189
3 | AGCAAGACATGGACCGGTTTTCCCGGTAATCCGTATTTGCA (site AGAAAGACTTG) | 1.86
4 | AGCAAGACATGGACCGGTTTTCCCGGTAATCCGTATTTGCA (site AGCAAGACTTG) | 2.01
5 | AGCAAGACATGGACCGGTTTTCCCGGTAATCCGTATTTGCA (site AGGAAGACTTG) | 0.969
6 | AGCAAGACATGGACCGGTTTTCCCGGTAATCCGTATTTGCA (site AGTAAGACTTG) | 0.542
7 | AGCACATCATGGACCGGTTTTCCCGGTAATCCGTATTTGGG (site AGCACATCTCC) | 0.0655
8 | AGCACCACATGGACCGGTTTTCCCGGTAATCCGTATTTGCA (site AGCACCACTTG) | 2.15
9 | AGCACGACATGGACCGGTTTTCCCGGTAATCCGTATTTGTC (site AGCACGACTGA) | 1.47
10 | AGCATAGCATGGACCGGTTTTCCCGGTAATCCGTATTTGTT (site AGCATAGCTAA) | 1.99
11 | AGCATAGCATGGACCGGTTTTCCCGGTAATCCGTATTTGTT (site AGCCTAGCTAA) | 0.0149
12 | AGCATAGCATGGACCGGTTTTCCCGGTAATCCGTATTTGTT (site AGCGTAGCTAA) | 0.0357
13 | AGCATAGCATGGACCGGTTTTCCCGGTAATCCGTATTTGTT (site AGCTTAGCTAA) | 0.00966
14 | AGCCAAACATGGACCGGTTTTCCCGGTAATCCGTATTTGAG (site AGCCAAACTCT) | 1.88
15 | AGCCAATCATGGACCGGTTTTCCCGGTAATCCGTATTTGGA (site AGCCAATCTTC) | 1.67
16 | AGCCATTCATGGACCGGTTTTCCCGGTAATCCGTATTTGAC (site AGCCATTCTGT) | 2.1
17 | AGCCATTCATGGACCGGTTTTCCCGGTAATCCGTATTTGAC (site AGCCCTTCTGT) | 0
18 | AGCCATTCATGGACCGGTTTTCCCGGTAATCCGTATTTGAC (site AGCCGTTCTGT) | 0
19 | AGCCATTCATGGACCGGTTTTCCCGGTAATCCGTATTTGAC (site AGCCTTTCTGT) | 0
20 | AGCCCATCATGGACCGGTTTTCCCGGTAATCCGTATTTGCT (site AGCCCATCTAG) | 1.83
21 | AGCCCTGCATGGACCGGTTTTCCCGGTAATCCGTATTTGGG (site AGCCCTGCTCC) | 0.336
22 | AGCCCTTCATGGACCGGTTTTCCCGGTAATCCGTATTTGAC (site AGCCATTCTGT) | 0
23 | AGCCCTTCATGGACCGGTTTTCCCGGTAATCCGTATTTGAC (site AGCCCTTCTGT) | 2.11
24 | AGCCCTTCATGGACCGGTTTTCCCGGTAATCCGTATTTGAC (site AGCCGTTCTGT) | 0

Row | Sequence | recombinant UMI read abundance (log10)
25 | AGCCCTTCATGGACCGGTTTTCCCGGTAATCCGTATTTGAC (site AGCCTTTCTGT) | 0.00743
26 | AGCCTAGCATGGACCGGTTTTCCCGGTAATCCGTATTTGGT (site AGCCTAGCTAA) | 0.168
27 | AGCCTAGCATGGACCGGTTTTCCCGGTAATCCGTATTTGGT (site AGCCTAGCTAC) | 0
28 | AGCCTAGCATGGACCGGTTTTCCCGGTAATCCGTATTTGGT (site AGCCTAGCTAG) | 0.00404
29 | AGCCTAGCATGGACCGGTTTTCCCGGTAATCCGTATTTGGT (site AGCCTAGCTAT) | 0.00284
30 | AGCCTGGCATGGACCGGTTTTCCCGGTAATCCGTATTTGTT (site AGCCTAGCTAA) | 0
31 | AGCCTGGCATGGACCGGTTTTCCCGGTAATCCGTATTTGTT (site AGCCTCGCTAA) | 0.0194
32 | AGCCTGGCATGGACCGGTTTTCCCGGTAATCCGTATTTGTT (site AGCCTGGCTAA) | 0.0154
33 | AGCCTGGCATGGACCGGTTTTCCCGGTAATCCGTATTTGTT (site AGCCTTGCTAA) | 0.0159
34 | AGCCTGTCATGGACCGGTTTTCCCGGTAATCCGTATTTGAC (site AGCCTATCTGT) | 0
35 | AGCCTGTCATGGACCGGTTTTCCCGGTAATCCGTATTTGAC (site AGCCTCTCTGT) | 0
36 | AGCCTGTCATGGACCGGTTTTCCCGGTAATCCGTATTTGAC (site AGCCTGTCTGT) | 0
37 | AGCCTGTCATGGACCGGTTTTCCCGGTAATCCGTATTTGAC (site AGCCTTTCTGT) | 0
38 | AGCCTTCCATGGACCGGTTTTCCCGGTAATCCGTATTTGAC (site AGCCTTACTGT) | 0
39 | AGCCTTCCATGGACCGGTTTTCCCGGTAATCCGTATTTGAC (site AGCCTTCCTGT) | 0
40 | AGCCTTCCATGGACCGGTTTTCCCGGTAATCCGTATTTGAC (site AGCCTTGCTGT) | 0
41 | AGCCTTCCATGGACCGGTTTTCCCGGTAATCCGTATTTGAC (site AGCCTTTCTGT) | 0
42 | AGCCTTGCATGGACCGGTTTTCCCGGTAATCCGTATTTGTT (site AGCCTAGCTAA) | 0.00391
43 | AGCCTTGCATGGACCGGTTTTCCCGGTAATCCGTATTTGTT (site AGCCTCGCTAA) | 0.0115
44 | AGCCTTGCATGGACCGGTTTTCCCGGTAATCCGTATTTGTT (site AGCCTGGCTAA) | 0.0183
45 | AGCCTTGCATGGACCGGTTTTCCCGGTAATCCGTATTTGTT (site AGCCTTGCTAA) | 0
46 | AGCCTTTCATGGACCGGTTTTCCCGGTAATCCGTATTTGAG (site AGCCTTTCTAT) | 0
47 | AGCCTTTCATGGACCGGTTTTCCCGGTAATCCGTATTTGAG (site AGCCTTTCTCT) | 0
48 | AGCCTTTCATGGACCGGTTTTCCCGGTAATCCGTATTTGAG (site AGCCTTTCTGT) | 0

Row | Sequence | recombinant UMI read abundance (log10)
49 | AGCCTTTCATGGACCGGTTTTCCCGGTAATCCGTATTTGAG (site AGCCTTTCTTT) | 0.007
50 | AGCGATACATGGACCGGTTTTCCCGGTAATCCGTATTTGAA (site AGCGATACTTT) | 1.65
51 | AGCGTAACATGGACCGGTTTTCCCGGTAATCCGTATTTGAC (site AGCGTAACTGT) | 2.86
52 | AGCGTAGCATGGACCGGTTTTCCCGGTAATCCGTATTTGCA (site AGCGTAGCTTG) | 2.87
53 | AGCGTAGCATGGACCGGTTTTCCCGGTAATCCGTATTTGTT (site AGCATAGCTAA) | 0.838
54 | AGCGTAGCATGGACCGGTTTTCCCGGTAATCCGTATTTGTT (site AGCCTAGCTAA) | 0.0274
55 | AGCGTAGCATGGACCGGTTTTCCCGGTAATCCGTATTTGTT (site AGCGTAGCTAA) | 1.33
56 | AGCGTAGCATGGACCGGTTTTCCCGGTAATCCGTATTTGTT (site AGCTTAGCTAA) | 0.00472
57 | AGCGTGACATGGACCGGTTTTCCCGGTAATCCGTATTTGCC (site AGCGTGACTGG) | 1.78
58 | AGCGTTACATGGACCGGTTTTCCCGGTAATCCGTATTTGTA (site AGCGTTACTTA) | 0.651
59 | AGCTCAACATGGACCGGTTTTCCCGGTAATCCGTATTTGGG (site AGCTCAACTCC) | 0
60 | AGCTCAACATGGACCGGTTTTCCCGGTAATCCGTATTTGGG (site AGCTCACCTCC) | 0
61 | AGCTCAACATGGACCGGTTTTCCCGGTAATCCGTATTTGGG (site AGCTCAGCTCC) | 0
62 | AGCTCAACATGGACCGGTTTTCCCGGTAATCCGTATTTGGG (site AGCTCATCTCC) | 0
63 | AGCTCAGCATGGACCGGTTTTCCCGGTAATCCGTATTTGGC (site AGCTCAGCTAC) | 0.396
64 | AGCTCAGCATGGACCGGTTTTCCCGGTAATCCGTATTTGGC (site AGCTCAGCTCC) | 0.00906
65 | AGCTCAGCATGGACCGGTTTTCCCGGTAATCCGTATTTGGC (site AGCTCAGCTGC) | 2.19
66 | AGCTCAGCATGGACCGGTTTTCCCGGTAATCCGTATTTGGC (site AGCTCAGCTTC) | 0.398
67 | AGCTCAGCATGGACCGGTTTTCCCGGTAATCCGTATTTGGG (site AACTCAGCTCC) | 0
68 | AGCTCAGCATGGACCGGTTTTCCCGGTAATCCGTATTTGGG (site ACCTCAGCTCC) | 0.026
69 | AGCTCAGCATGGACCGGTTTTCCCGGTAATCCGTATTTGGG (site AGATCAGCTCC) | 0.0131
70 | AGCTCAGCATGGACCGGTTTTCCCGGTAATCCGTATTTGGG (site AGCACAGCTCC) | 0.212
71 | AGCTCAGCATGGACCGGTTTTCCCGGTAATCCGTATTTGGG (site AGCCCAGCTCC) | 0.263
72 | AGCTCAGCATGGACCGGTTTTCCCGGTAATCCGTATTTGGG (site AGCGCAGCTCC) | 0.0219
